# How the values were obtained:
# [1] = system: NPCs from the SGZ of Ts65Dn mice; assay: Neuron maturation: cells exhibiting neuritic processes, SGZ NPCs; type: cell-based, mouse; conditions: 96 h, vs standard medium
# Protocol: Cells were isolated from the subventricular zone (SVZ) of the lateral ventricle and the subgranular zone (SGZ) of the hippocampal dentate gyrus (DG) of newborn (P1-P2) euploid and Ts65Dn mice. Briefly, brains were removed, the SVZ and SGZ regions were isolated and individually collected in ice-cold PIPES buffer pH 7.4. After centrifugation, tissue was digested for 10 min at 37° C. using Trypsin/EDTA 0.25% (Life Technologies) aided by gentle mechanical dissociation. Cell suspension from each individual mouse was plated onto 25 cm^2 cell-culture flask (Thermo Fisher Scientific) and cultured as floating neurospheres in medium containing basic fibroblast growth factor (bFGF, 10 ng/ml; Peprotech) and epidermal growth factor (EGF, 20 ng/ml; Peprotech) using an established protocol (Meneghini et al., 2014). […] Cell proliferation was quantified as relative luminescence units (RLU) values using Cell Titer-Glo viability assay reagent (Promega) on aVictor^3-V plate reader (PerkinElmer). […] In each experiment, five fields/well (corresponding to about 150-200 cells/well) were counted with a 60× objective by a Leica DMIRB inverted fluorescence microscope. Immunoreactive cells were counted and their percentage over total viable cells was calculated. […]
# [2] = system: proliferating cells in the SVZ; assay: Prenatal treatment: BrdU-positive cells in the SVZ of P2 mice; type: in vivo, mouse
# Protocol: Conception was determined by examining the vaginal plug. […] After sacrifice, brain was excised and weighed.
# One of 20 sections (n=8-10) from the beginning to the end of the hippocampal formation were subjected to double-fluorescence immunohistochemistry for BrdU and NeuN. Sections were incubated overnight at 4° C. with a primary antibody, rat monoclonal anti-BrdU antibody (AbD Serotec), diluted 1:100 in 0.1% Triton X-100 in PBS and either mouse monoclonal anti-NeuN (Millipore Bioscience Research Reagents) diluted 1:400 in 0.1% Triton X-100 in PBS. Sections were then washed in 0.1% Triton X-100 in PBS for 40 min and incubated for 2 h with a Cy3-conjugated anti-rat IgG (1:200; Jackson Immunoresearch) secondary fluorescent antibody for BrdU immunohistochemistry and FITC-conjugated anti-mouse IgG (1:200; Jackson Immunoresearch) for NeuN immunohistochemistry.
# BrdU-positive cells were sampled in the caudal subventricular zone (SVZ) of the lateral ventricle overlying the dentate gyrus and from the subgranular zone (SGZ) of the dentate gyrus (FIG. 10A). The caudal SVZ is the region that stretches from the beginning to the end of the hippocampal formation (BC: 3.27-4.84 mm). Since different regions of the ventricular zone (VZ) and SVZ give origin to neurons destined to different telecephalic areas (Brazel et al., 2003), we evaluated the effects of treatment both in the dorsal and lateral part of the SVZ (FIG. 10B). For cell counting, an area was traced enclosing the whole SVZ and all cells in this area were counted. While at later life stages, neural progenitor cells are only present in the SGZ of the dentate gyrus, in P2 pups proliferating cells can be detected in the perspective molecular layer and hilus. Therefore, cells were counted within a manually-traced area enclosing the whole dentate gyrus (FIG. 10B). […] Quantification of BrdU-labeled nuclei was conducted in every 20th section. The total number of BrdU labeled cells in the SVZ and SGZ was estimated by multiplying the number counted in the sampled sections by the inverse of the section sampling fraction (ssf= 1/20).
# [3] = Prenatal treatment: abortion rate, pups per litter, mortality of progeny
# Protocol: Ts65Dn females (n=4) were bred C57BL/6JEi×C3SnHeSnJ (B6EiC3) F1 males (n=4). Conception was determined by examining the vaginal plug. Pregnant females received a daily subcutaneous injection of either 7,8-DHF (Sigma-Aldrich) in PBS with 2% DMSO (dose: 5 mg/kg) or vehicle from the embryonic (E) day 10 (E10) to the day of delivery (E20/21). […] On postnatal day 2 (P2) the progeny of 7,8-DHF-treated and vehicle-treated females received an intraperitoneal injection (150 μg/g body weight) of BrdU (Sigma) in 0.9% NaCl solution and were killed after 2 h (on P2; 4-8 animals for each group). Vehicle-treated females and their progeny will be called hereafter untreated mice. The body weight of P2 mice was recorded prior to sacrifice. After sacrifice, brain was excised and weighed.
# The Ts65Dn strain is characterized by a high mortality rate during gestation (Roper et al., 2006).
structure (smiles),measurement,setting,value
"O=c1cc(-c2ccccc2)oc2c(O)c(O)ccc12 [7,8-DHF, 7,8-dihydroxyflavone]",concentrations that increased the percentage of cells exhibiting neuritic processes,[1],higher than 1.1 μM
same,"total number of BrdU-positive cells in the SVZ, treated Ts65Dn vs untreated euploid mice","[2]; P2, treated E10-E20/21",no differences in total number of BrdU-positive cells
same,total number of BrdU-positive cells in the SVZ,"[2]; P2 Ts65Dn mice, dams 5 mg/kg s.c. E10-E20/21, untreated Ts65Dn approx. 22500, euploid approx. 32300",approximately 33900
same,increase in cell number in the SVZ vs untreated Ts65Dn,"[2]; P2 Ts65Dn mice, treated E10-E20/21",+50%
same,mean number of pups per litter,"[3]; female, Ts65Dn, mouse, in vivo",5.33±2.04
same,spontaneous abortion,"[3]; mouse, in vivo",none of untreated and treated females underwent spontaneous abortion
same,mortality rate of the progeny,"[3]; treated females, mean±ES, vehicle 0.00±0.00, p=0.219",0.66±0.81

# — patent publication US10945989B2, “Perinatal treatment with a flavonoid agonist of the TrkB receptor for BDNF rescues neurogenesis and behavior in the Ts65Dn mouse model of DS” (ALMA MATER STUDIORUM—Universita' di Bologna, priority 2017, dated 2021)
